Results from PubChem BioAssay (NCI).
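All cell lines were grown in 96-well plates and treated with compound for 48 hours. TGI marks complete inhibition of growth.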

What was measured:
Experiment in all cases: NCI tumour cell line growth inhibition, 48 h
[1] = system: CAKI-1 renal
[2] = system: HCT-116 colon
[3] = system: T-47D breast
[4] = system: BT-549 breast
[5] = system: SF-295 CNS
[6] = system: NCI/ADR-RES ovarian
[7] = system: A498 renal
[8] = system: NCI-H23 lung
[9] = system: OVCAR-4 ovarian
[10] = system: TK-10 renal
[11] = system: LOX IMVI melanoma
[12] = system: MDA-MB-231 breast
[13] = system: IGROV1 ovarian
[14] = system: OVCAR-5 ovarian
[15] = system: RXF 393 renal
[16] = system: UO-31 renal
[17] = system: SN12C renal
[18] = system: OVCAR-8 ovarian
[19] = system: SW-620 colon
[20] = system: SNB-19 CNS
[21] = system: SK-MEL-5 melanoma
[22] = system: A549 NSCLC
[23] = system: CCRF-CEM leukemia
[24] = system: U251 CNS
[25] = system: HCC-2998 colon
[26] = system: ACHN renal
[27] = system: PC-3 prostate
[28] = system: SNB-75 CNS
[29] = system: MCF7 breast
[30] = system: HS 578T breast
[31] = system: K-562 leukemia
[32] = system: M14 melanoma
[33] = system: HOP-62 NSCLC
[34] = system: MDA-MB-435
[35] = system: UACC-62 melanoma
[36] = system: NCI-H460 lung
[37] = system: HOP-92 NSCLC
[38] = system: MOLT-4 leukemia
[39] = system: NCI-H522 lung
[40] = system: SF-268 CNS
[41] = system: COLO 205 colon
[42] = system: DU-145 prostate
[43] = system: SK-MEL-2 melanoma
[44] = system: OVCAR-3 ovarian
[45] = system: 786-0 renal
[46] = system: SF-539 CNS
[47] = system: KM12 colon
[48] = system: EKVX NSCLC
[49] = system: UACC-257 melanoma
[50] = system: HCT-15 colon
[51] = system: SK-MEL-28 melanoma
[52] = system: SK-OV-3 ovarian
[53] = system: HT29 colon

Measured: TGI

CCc1c(O)cc(=O)oc1-c1ccc(OC)c(OC)c1
> 100 µM: all assays above
